Experimental data taken from patent publication US10495648B2, “Methods of treating liver fibrosis” (GILEAD SCIENCES, INC., priority 2017, dated 2019).
Where “and” joins values, the source holds several entries; their conditions need not be identical. Equal values may be shown once.

Experiments:
Assay type in all cases: in vivo, human
plasma miRNAs = assay: Plasma miRNA qPCR in phase 2 study GS-US-384-1497, miRNAs modulated by SEL treatment
Excerpt: Plasma samples were obtained from 72 subjects enrolled in the GS-US-384-1497 Gilead study. The study is a phase 2 study evaluating the safety, tolerability, and efficacy of selonsertib (ASK1 inhibitor) alone or in combination with simtuzumab (SIM) in subjects with Nonalcoholic Steatohepatitis (NASH) and fibrosis stages F2-F3. The inclusion criteria included patients with metabolic syndrome, serum ALT≥1.5×ULN and ≤5×ULN, and Fibroscan that measures liver stiffness: ≥7 kPa and <12 kPa, or NAS score greater ≥5 with fibrosis stage 2 to 3.
Total RNA samples were isolated and 301 selected miRNA were measured by qPCR. MiRNA expression levels were normalized using the global mean of all expressed miRNAs. Differential expression analyses were performed using limma method; p-values in multiple comparisons were corrected using the Benjamini-Hochberg method. Spearman correlations were calculated between miRNA expression with fibrosis stage and NAS score at baseline and at week 24.
11 miRNAs (hsa-miR-505-3p, hsa-miR-29a-3p, hsa-miR-215-5p, hsa-miR-148a-3p, hsa-miR-99a-5p, hsa-miR-885-5p, hsa-miR-122-5p, hsa-miR-34a-5p, hsa-miR-365a-3p, hsa-miR-194-5p, hsa-miR-155-5p) with nominal […] were modulated by SEL treatment, see Table 2 below.

plasma miRs = assay: Plasma miR qPCR in GS-US-321-0105 and GS-US-321-0106, association with SIM treatment
Procedure: Screen failed subjects were included in the analysis to ensure the miRs were analyzed in all the fibrosis stages. The samples analyzed after quality control, which excluded samples that were hemolyzed and samples that had overall low expression of miRs.
Plasma miRs were isolated with spike-in controls using total RNA isolation kit (Exiqon, Denmark). Complementary DNA was synthesized with spike-in control using the Exiqon cDNA synthesis kit and selected plasma miRs (n=157) were measured at BL, W12, and W24 by qPCR using the Exiqon platform (Covance, USA). For the 1497 study, 301 miRs were measured but only 132 miRs were expressed therefore for the 105/106 studies we measured the 132 miRs with 25 additional miRs were measured for the 105/106 study. The data was normalized using Global fit method of normalization.

NASH patients = assay: Safety and efficacy of SIM in NASH patients, studies GS-US-321-0105 and GS-US-321-0106 (fibrosis)
Procedure: The miR analysis was expanded to using GS-US-321-0105 and GS-US-321-0106 studies where biopsy proven samples were used from NASH patients. These studies had evaluated the safety and efficacy of Simtuzamab (SIM) in NASH patients. […] It was observed that 20% of the samples had fibrosis improvement, 20% fibrosis […] and for the rest of the subjects the fibrosis remained unchanged. As these samples represented the natural history of fibrosis changes, miR expression was analyzed in these samples.
Subjects in GS-US-384-1497 phase 2 trials were enrolled with F2-3 Stages of fibrosis and subjects in GS-US-321-0105 phase 2 trial were enrolled with F3 Stage of fibrosis and GS-US-321-0106 phase 2 trial subjects were enrolled with F4 stage of fibrosis.

Row | Molecule | Fold Change miR-29a-3p (plasma miRNAs; 6 mg SEL ± SIM, week 24) | Fold Change miR-34a-5p (plasma miRNAs; 6 mg SEL ± SIM, week 24) | Fold Change miR-99a-5p (plasma miRNAs; 6 mg SEL ± SIM, week 24) | Fold Change miR-122-5p (plasma miRNAs; 6 mg SEL ± SIM, week 24) | Fold Change miR-148a-3p (plasma miRNAs; 6 mg SEL ± SIM, week 24) | Fold Change miR-194-5p (plasma miRNAs; 6 mg SEL ± SIM, week 24) | Fold Change miR-215-5p (plasma miRNAs; 6 mg SEL ± SIM, week 24) | Fold Change miR-365a-3p (plasma miRNAs; 6 mg SEL ± SIM, week 24) | Fold Change miR-505-3p (plasma miRNAs; 6 mg SEL ± SIM, week 24) | Fold Change miR-885-5p (plasma miRNAs; 6 mg SEL ± SIM, week 24) | Fold Change miR-34a-5p (plasma miRNAs; 18 mg SEL ± SIM, week 24) | Fold Change miR-99a-5p (plasma miRNAs; 18 mg SEL ± SIM, week 24) | Fold Change miR-155-5p (plasma miRNAs; 18 mg SEL ± SIM, week 24) | Fold Change miR-885-5p (plasma miRNAs; 18 mg SEL ± SIM, week 24) | number of miRNAs modulated by SEL treatment (plasma miRNAs; GS-US-384-1497, week 24) | miRs associated with SIM treatment (plasma miRs) | effect on fibrosis (NASH patients)
1 | Cc1cc(F)c(C(=O)Nc2cccc(-c3nncn3C(C)C)n2)cc1-n1cnc(C2CC2)c1 [SEL, selonsertib] | −1.23 | −1.54 | −1.33 | −1.42 | −1.28 | −1.30 | −1.27 | −1.65 | −1.24 | −1.37 | −1.33 | −1.25 | 1.33 | −1.56 | 11 and 12 | – | –
2 | simtuzumab (antibody, chains of the INN, looked up, V domains shown) VH: QVQLVQSGAEVKKPGASVKVSCKASGYAFTYYLIEWVRQAPGQGLEWIGVINPGSGGTNYNEKFKGRATITADKSTSTAYMELSSLRSEDTAVYFCARNWMNFDYWGQGTTVTVSS VL: DIVMTQTPLSLSVTPGQPASISCRSSKSLLHSNGNTYLYWFLQKPGQSPQFLIYRMSNLASGVPDRFSGSGSGTDFTLKISRVEAEDVGVYYCMQHLEYPYTFGGGTKVEIK | – | – | – | – | – | – | – | – | – | – | – | – | – | – | – | no miRs associated with SIM treatment | ineffective at reducing fibrosis
